Source: US20250025473A1 (priority 2021, published 2025)
Like-named read-outs stand apart in the source and are kept apart here.

What was measured:
panel of 393 kinases [1] = biological target: T1, panel of 393 kinases (Homo sapiens, UniProt O00418); assay: biochemical; settings: CIMSS 10 μM, 10 μM ATP
T1 construct: purchased Reaction Biology Corporation

panel of 393 kinases [2] = biological target: T2, panel of 393 kinases (Homo sapiens, UniProt P19525); assay: biochemical; settings: CIMSS 10 μM, 10 μM ATP
T2 construct: purchased Reaction Biology Corporation
T2 sequence (P19525 whole entry): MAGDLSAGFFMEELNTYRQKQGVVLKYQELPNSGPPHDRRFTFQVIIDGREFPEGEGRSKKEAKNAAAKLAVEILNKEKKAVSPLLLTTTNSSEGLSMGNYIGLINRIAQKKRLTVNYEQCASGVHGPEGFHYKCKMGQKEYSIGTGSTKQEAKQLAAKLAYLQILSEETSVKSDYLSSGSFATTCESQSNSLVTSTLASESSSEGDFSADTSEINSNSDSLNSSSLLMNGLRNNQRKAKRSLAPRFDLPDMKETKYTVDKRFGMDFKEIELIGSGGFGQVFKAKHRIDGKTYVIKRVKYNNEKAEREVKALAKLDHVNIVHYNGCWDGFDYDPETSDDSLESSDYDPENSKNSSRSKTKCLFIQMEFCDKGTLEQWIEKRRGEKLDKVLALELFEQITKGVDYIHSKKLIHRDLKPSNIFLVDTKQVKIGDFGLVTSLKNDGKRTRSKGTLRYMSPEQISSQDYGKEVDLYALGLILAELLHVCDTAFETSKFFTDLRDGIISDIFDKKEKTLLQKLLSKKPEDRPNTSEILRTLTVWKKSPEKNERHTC

panel of 393 kinases [3] = biological target: T3, panel of 393 kinases (Homo sapiens, UniProt P42345); assay: biochemical; settings: CIMSS 10 μM, 10 μM ATP
T3 construct: purchased Reaction Biology Corporation

panel of 393 kinases [4] = biological target: T4, panel of 393 kinases (Homo sapiens, UniProt P54646); assay: biochemical; settings: CIMSS 10 μM, 10 μM ATP
T4 construct: purchased Reaction Biology Corporation
T4 sequence (P54646 whole entry): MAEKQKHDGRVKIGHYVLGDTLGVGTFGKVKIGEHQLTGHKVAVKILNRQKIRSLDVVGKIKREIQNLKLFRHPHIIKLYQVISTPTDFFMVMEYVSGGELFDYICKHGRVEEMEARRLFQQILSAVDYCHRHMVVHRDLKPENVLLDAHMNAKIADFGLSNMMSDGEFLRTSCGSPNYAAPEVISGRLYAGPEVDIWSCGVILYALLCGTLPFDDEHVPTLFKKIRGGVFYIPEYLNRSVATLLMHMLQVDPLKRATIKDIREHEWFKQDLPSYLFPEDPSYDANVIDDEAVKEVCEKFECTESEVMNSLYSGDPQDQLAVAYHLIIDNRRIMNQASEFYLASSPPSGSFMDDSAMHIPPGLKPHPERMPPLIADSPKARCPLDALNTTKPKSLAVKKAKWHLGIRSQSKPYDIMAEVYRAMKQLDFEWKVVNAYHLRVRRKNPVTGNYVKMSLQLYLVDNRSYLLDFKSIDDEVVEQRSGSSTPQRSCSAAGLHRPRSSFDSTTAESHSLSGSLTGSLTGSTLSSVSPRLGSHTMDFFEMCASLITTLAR

panel of 393 kinases [5] = biological target: T5, panel of 393 kinases (Homo sapiens, UniProt Q13131); assay: biochemical; settings: CIMSS 10 μM, 10 μM ATP
T5 construct: purchased Reaction Biology Corporation
T5 sequence (Q13131 whole entry): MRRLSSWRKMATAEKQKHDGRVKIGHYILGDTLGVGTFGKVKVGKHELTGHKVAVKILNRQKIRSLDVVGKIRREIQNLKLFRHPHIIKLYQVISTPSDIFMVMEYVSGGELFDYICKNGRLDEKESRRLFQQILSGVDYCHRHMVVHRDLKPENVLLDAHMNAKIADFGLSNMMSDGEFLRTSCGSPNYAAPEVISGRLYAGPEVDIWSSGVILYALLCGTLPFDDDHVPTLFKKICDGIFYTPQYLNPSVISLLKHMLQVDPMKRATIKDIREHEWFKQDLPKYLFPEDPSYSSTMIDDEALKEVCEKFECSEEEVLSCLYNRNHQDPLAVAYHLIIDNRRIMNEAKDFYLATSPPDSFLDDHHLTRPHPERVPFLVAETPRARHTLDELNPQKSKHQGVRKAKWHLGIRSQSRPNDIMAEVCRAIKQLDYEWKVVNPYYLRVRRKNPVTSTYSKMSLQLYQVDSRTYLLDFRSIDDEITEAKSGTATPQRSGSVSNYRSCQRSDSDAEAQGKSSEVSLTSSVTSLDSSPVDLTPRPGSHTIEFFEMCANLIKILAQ

panel of 393 kinases [6] = biological target: T6, panel of 393 kinases (Homo sapiens, UniProt Q15118); assay: biochemical; settings: CIMSS 10 μM, 10 μM ATP
T6 construct: purchased Reaction Biology Corporation
T6 sequence (Q15118 29-436): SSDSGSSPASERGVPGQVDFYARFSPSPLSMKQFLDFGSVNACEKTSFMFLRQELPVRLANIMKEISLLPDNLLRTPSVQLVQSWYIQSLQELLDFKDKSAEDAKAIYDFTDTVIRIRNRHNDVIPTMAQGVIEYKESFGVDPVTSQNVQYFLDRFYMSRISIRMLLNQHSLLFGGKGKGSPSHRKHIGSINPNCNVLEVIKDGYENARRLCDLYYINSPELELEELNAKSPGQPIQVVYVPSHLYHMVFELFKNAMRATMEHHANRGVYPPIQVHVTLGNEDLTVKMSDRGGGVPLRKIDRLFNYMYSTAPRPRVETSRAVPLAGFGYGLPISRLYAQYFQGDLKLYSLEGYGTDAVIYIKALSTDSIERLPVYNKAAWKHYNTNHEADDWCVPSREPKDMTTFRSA

panel of 393 kinases [7] = biological target: T7, panel of 393 kinases (Homo sapiens, UniProt Q15119); assay: biochemical; settings: CIMSS 10 μM, 10 μM ATP
T7 construct: purchased Reaction Biology Corporation

panel of 393 kinases [8] = biological target: T8, panel of 393 kinases (Homo sapiens, UniProt Q16654); assay: biochemical; settings: CIMSS 10 μM, 10 μM ATP
T8 construct: purchased Reaction Biology Corporation
T8 sequence (Q16654 whole entry): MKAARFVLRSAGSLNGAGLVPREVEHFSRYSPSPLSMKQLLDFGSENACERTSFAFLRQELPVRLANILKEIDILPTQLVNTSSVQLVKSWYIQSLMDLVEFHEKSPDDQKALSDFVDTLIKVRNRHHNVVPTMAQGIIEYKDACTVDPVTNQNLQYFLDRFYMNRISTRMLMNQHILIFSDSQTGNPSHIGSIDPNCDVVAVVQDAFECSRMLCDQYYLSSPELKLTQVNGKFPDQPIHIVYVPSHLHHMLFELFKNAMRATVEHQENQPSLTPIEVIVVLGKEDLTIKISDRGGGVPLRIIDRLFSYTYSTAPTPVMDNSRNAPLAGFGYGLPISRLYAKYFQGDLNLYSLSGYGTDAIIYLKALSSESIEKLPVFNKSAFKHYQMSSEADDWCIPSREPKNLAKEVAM

panel of 393 kinases [9] = biological target: T9, panel of 393 kinases (Homo sapiens, UniProt Q9BQI3); assay: biochemical; settings: CIMSS 10 μM, 10 μM ATP
T9 construct: purchased Reaction Biology Corporation
T9 sequence (Q9BQI3 whole entry): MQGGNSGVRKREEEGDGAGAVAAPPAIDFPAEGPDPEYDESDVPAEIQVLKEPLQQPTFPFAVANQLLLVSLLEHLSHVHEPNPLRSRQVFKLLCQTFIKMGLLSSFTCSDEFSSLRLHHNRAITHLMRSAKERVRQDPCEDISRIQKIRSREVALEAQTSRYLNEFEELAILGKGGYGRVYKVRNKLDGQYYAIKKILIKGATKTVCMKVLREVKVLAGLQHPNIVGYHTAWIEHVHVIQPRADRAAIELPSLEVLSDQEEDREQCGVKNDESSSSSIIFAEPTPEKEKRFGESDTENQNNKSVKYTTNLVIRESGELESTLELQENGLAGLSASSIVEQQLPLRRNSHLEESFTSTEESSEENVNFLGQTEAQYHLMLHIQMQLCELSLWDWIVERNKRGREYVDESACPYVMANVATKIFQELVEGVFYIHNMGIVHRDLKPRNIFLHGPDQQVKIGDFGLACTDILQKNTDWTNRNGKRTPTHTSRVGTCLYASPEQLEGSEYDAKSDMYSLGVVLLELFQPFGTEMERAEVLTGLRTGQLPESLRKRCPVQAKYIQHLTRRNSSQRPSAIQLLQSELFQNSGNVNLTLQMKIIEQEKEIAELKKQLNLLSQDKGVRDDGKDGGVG

panel of 393 kinases [10] = biological target: T10, panel of 393 kinases (Homo sapiens, UniProt Q9NZJ5); assay: biochemical; settings: CIMSS 10 μM, 10 μM ATP
T10 construct: purchased Reaction Biology Corporation
T10 sequence (Q9NZJ5 30-1116): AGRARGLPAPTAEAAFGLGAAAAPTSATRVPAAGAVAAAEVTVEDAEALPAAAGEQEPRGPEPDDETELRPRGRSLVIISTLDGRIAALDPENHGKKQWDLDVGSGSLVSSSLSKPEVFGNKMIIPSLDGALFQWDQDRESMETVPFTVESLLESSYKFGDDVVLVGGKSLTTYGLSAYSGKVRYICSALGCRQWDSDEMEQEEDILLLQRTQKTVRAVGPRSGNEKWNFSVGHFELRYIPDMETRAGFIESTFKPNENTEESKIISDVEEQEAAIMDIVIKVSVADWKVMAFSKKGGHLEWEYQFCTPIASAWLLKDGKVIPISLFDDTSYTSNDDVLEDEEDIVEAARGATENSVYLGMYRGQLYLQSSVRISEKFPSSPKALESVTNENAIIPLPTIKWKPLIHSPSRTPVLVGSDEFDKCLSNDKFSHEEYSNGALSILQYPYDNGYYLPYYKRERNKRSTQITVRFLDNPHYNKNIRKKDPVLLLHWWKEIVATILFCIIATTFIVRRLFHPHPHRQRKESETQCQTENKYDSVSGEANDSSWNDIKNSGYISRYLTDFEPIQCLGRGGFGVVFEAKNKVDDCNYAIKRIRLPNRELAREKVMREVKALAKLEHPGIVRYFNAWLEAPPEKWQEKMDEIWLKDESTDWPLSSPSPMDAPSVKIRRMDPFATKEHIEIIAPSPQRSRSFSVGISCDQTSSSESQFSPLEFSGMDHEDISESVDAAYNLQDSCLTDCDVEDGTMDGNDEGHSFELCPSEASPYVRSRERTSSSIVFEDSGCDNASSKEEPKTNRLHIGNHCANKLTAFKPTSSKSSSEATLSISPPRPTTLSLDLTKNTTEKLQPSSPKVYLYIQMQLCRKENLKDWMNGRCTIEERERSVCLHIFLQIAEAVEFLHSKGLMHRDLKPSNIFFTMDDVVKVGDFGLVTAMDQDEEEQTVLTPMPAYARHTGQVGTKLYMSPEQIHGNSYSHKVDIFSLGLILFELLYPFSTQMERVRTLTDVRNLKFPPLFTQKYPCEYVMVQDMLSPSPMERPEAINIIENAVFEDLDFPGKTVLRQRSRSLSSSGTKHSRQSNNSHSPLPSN

[11] = test system: phosphorylated Akt (pAkt T308); format: cell-based, human
intracellular Ca2+ = assay: Calcium kinetic measurements (Fura-2) after HSV exposure; format: cell-based, human; settings: 10 μM, HaCat
Protocol: The cells were then washed, lysed and Western blots of cell lysates prepared and probed with a mAb to gD as a marker of cell-bound virus and anti-3-actin as a loading control. […] Representative responses are shown for the first 30 minutes (left) and the mean calcium released over the first 3 minutes and then the extended response in the first hour following viral exposure were calculated from 4 wells in 3 independent experiments, each containing 5×10^4 cells (right). Asterisks indicate statistically significant differences by ANOVA (*, p<0.05, ** p<0.01, *** p<0.001) relative to control cells (mock-infected, DMSO). […] Nuclei were stained blue with DAPI. Images are representative of 2 independent experiments. […] Nuclei are stained blue (DAPI). Images were obtained with ZeissLive/DuoScan (objective 100×1.4, bar=10 μm) are representative of 2 independent experiments; quantification is shown in FIG. 11.
The cells were then transferred to SpectraMax® MF^e temperature-regulated chamber at 37° C. […] An intracellular calibration was performed with each experiment by determining the fluorescence ratio (340:380) in the presence of Ca-free 10 mM K2EGTA buffer (Rmin) and 10 mM CaEGTA buffer containing 10 μM ionomycin (Rmax) (C-3008, Calcium Calibration Buffer Kit #1, Invitrogen Molecular Probes™).

PKA = PKA (Homo sapiens, UniProt P17612); assay: HotSpot in vitro kinase assay, PKA
EGFR = EGFR (Homo sapiens, UniProt P00533); assay: HotSpot in vitro kinase assay, EGFR; settings: read-out: Compound IC50, EGFR; in vitro kinase activity

T1 sequence (O00418 whole entry): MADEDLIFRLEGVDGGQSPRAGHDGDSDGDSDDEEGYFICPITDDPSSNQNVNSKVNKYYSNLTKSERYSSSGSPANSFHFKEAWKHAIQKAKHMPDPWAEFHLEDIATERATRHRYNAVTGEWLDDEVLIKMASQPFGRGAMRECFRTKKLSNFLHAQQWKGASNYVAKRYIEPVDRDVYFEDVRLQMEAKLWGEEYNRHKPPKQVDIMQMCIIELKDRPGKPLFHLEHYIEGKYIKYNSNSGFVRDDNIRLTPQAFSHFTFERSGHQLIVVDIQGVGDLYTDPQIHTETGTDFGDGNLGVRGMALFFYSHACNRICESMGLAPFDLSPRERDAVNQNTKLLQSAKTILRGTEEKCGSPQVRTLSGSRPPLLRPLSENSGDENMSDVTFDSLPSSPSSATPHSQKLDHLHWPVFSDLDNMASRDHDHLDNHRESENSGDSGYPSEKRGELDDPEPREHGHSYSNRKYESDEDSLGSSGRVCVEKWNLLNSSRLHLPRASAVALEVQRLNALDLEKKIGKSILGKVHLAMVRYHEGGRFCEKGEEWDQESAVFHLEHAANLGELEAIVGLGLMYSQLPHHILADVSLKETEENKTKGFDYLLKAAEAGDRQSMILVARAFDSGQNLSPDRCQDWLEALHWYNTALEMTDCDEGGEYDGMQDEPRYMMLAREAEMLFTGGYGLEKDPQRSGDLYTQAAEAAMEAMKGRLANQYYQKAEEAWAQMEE

SMILES: CO[C@@H]1[C@H](N(C)C(=O)CCC(=O)NCc2cn(CCCS(=O)(=O)[O-])nn2)C[C@H]2O[C@]1(C)n1c3ccccc3c3c4c(c5c6ccccc6n2c5c31)C(=O)NC4.[Na+] [CIMSS]
- remaining activity at 10 µM (panel of 393 kinases [1]; read-out: % Enzyme Activity (relative to DMSO controls) CIMSS (10 μM) Data 1, kinase EEF2K, Data 1): 99.5%
- remaining activity at 10 µM (panel of 393 kinases [1]; read-out: % Enzyme Activity (relative to DMSO controls) CIMSS (10 μM) Data 2, kinase EEF2K, Data 2): 97%
- remaining activity at 10 µM (panel of 393 kinases [2]; read-out: % Enzyme Activity (relative to DMSO controls) CIMSS (10 μM) Data 1, kinase EIF2AK2, Data 1): 9.89%
- remaining activity at 10 µM (panel of 393 kinases [2]; read-out: % Enzyme Activity (relative to DMSO controls) CIMSS (10 μM) Data 2, kinase EIF2AK2, Data 2): 9.34%
- remaining activity at 10 µM (panel of 393 kinases [3]; read-out: % Enzyme Activity (relative to DMSO controls) CIMSS (10 μM) Data 1, kinase mTOR/FRAP1, Data 1): 112%
- remaining activity at 10 µM (panel of 393 kinases [3]; read-out: % Enzyme Activity (relative to DMSO controls) CIMSS (10 μM) Data 2, kinase mTOR/FRAP1, Data 2): 108%
- remaining activity at 10 µM (panel of 393 kinases [4]; read-out: % Enzyme Activity (relative to DMSO controls) CIMSS (10 μM) Data 1, kinase AMPK (A2/B1/G3), Data 1): 0.67%
- remaining activity at 10 µM (panel of 393 kinases [4]; read-out: % Enzyme Activity (relative to DMSO controls) CIMSS (10 μM) Data 1, kinase AMPK(A2/B1/G1), Data 1): 0.76%
- remaining activity at 10 µM (panel of 393 kinases [4]; read-out: % Enzyme Activity (relative to DMSO controls) CIMSS (10 μM) Data 1, kinase AMPK(A2/B2/G1), Data 1): 0.34%
- remaining activity at 10 µM (panel of 393 kinases [4]; read-out: % Enzyme Activity (relative to DMSO controls) CIMSS (10 μM) Data 1, kinase AMPK(A2/B2/G2), Data 1): 0.73%
- remaining activity at 10 µM (panel of 393 kinases [4]; read-out: % Enzyme Activity (relative to DMSO controls) CIMSS (10 μM) Data 1, kinase AMPK(A2/B2/G3), Data 1): 0.63%
- remaining activity at 10 µM (panel of 393 kinases [4]; read-out: % Enzyme Activity (relative to DMSO controls) CIMSS (10 μM) Data 2, kinase AMPK (A2/B1/G3), Data 2): 0.59%
- remaining activity at 10 µM (panel of 393 kinases [4]; read-out: % Enzyme Activity (relative to DMSO controls) CIMSS (10 μM) Data 2, kinase AMPK(A2/B1/G1), Data 2): 0.64%
- remaining activity at 10 µM (panel of 393 kinases [4]; read-out: % Enzyme Activity (relative to DMSO controls) CIMSS (10 μM) Data 2, kinase AMPK(A2/B2/G1), Data 2): 0.23%
- remaining activity at 10 µM (panel of 393 kinases [4]; read-out: % Enzyme Activity (relative to DMSO controls) CIMSS (10 μM) Data 2, kinase AMPK(A2/B2/G2), Data 2): 0.63%
- remaining activity at 10 µM (panel of 393 kinases [4]; read-out: % Enzyme Activity (relative to DMSO controls) CIMSS (10 μM) Data 2, kinase AMPK(A2/B2/G3), Data 2): 0.61%
- remaining activity at 10 µM (panel of 393 kinases [5]; read-out: % Enzyme Activity (relative to DMSO controls) CIMSS (10 μM) Data 1, kinase AMPK(A1/B1/G1), Data 1): 1.14%
- remaining activity at 10 µM (panel of 393 kinases [5]; read-out: % Enzyme Activity (relative to DMSO controls) CIMSS (10 μM) Data 1, kinase AMPK(A1/B1/G2), Data 1): 1.46%
- remaining activity at 10 µM (panel of 393 kinases [5]; read-out: % Enzyme Activity (relative to DMSO controls) CIMSS (10 μM) Data 1, kinase AMPK(A1/B1/G3), Data 1): 0.22%
- remaining activity at 10 µM (panel of 393 kinases [5]; read-out: % Enzyme Activity (relative to DMSO controls) CIMSS (10 μM) Data 1, kinase AMPK(A1/B2/G1), Data 1): 0.73%
- remaining activity at 10 µM (panel of 393 kinases [5]; read-out: % Enzyme Activity (relative to DMSO controls) CIMSS (10 μM) Data 2, kinase AMPK(A1/B1/G1), Data 2): 1.14%
- remaining activity at 10 µM (panel of 393 kinases [5]; read-out: % Enzyme Activity (relative to DMSO controls) CIMSS (10 μM) Data 2, kinase AMPK(A1/B1/G2), Data 2): 1.23%
- remaining activity at 10 µM (panel of 393 kinases [5]; read-out: % Enzyme Activity (relative to DMSO controls) CIMSS (10 μM) Data 2, kinase AMPK(A1/B1/G3), Data 2): 0.07%
- remaining activity at 10 µM (panel of 393 kinases [5]; read-out: % Enzyme Activity (relative to DMSO controls) CIMSS (10 μM) Data 2, kinase AMPK(A1/B2/G1), Data 2): 0.57%
- remaining activity at 10 µM (panel of 393 kinases [6]; read-out: % Enzyme Activity (relative to DMSO controls) CIMSS (10 μM) Data 1, kinase PDK1/PDHK1, Data 1): 97.2%
- remaining activity at 10 µM (panel of 393 kinases [6]; read-out: % Enzyme Activity (relative to DMSO controls) CIMSS (10 μM) Data 2, kinase PDK1/PDHK1, Data 2): 96.8%
- remaining activity at 10 µM (panel of 393 kinases [7]; read-out: % Enzyme Activity (relative to DMSO controls) CIMSS (10 μM) Data 1, kinase PDK2/PDHK2, Data 1): 95.5%
- remaining activity at 10 µM (panel of 393 kinases [7]; read-out: % Enzyme Activity (relative to DMSO controls) CIMSS (10 μM) Data 2, kinase PDK2/PDHK2, Data 2): 94%
- remaining activity at 10 µM (panel of 393 kinases [8]; read-out: % Enzyme Activity (relative to DMSO controls) CIMSS (10 μM) Data 1, kinase PDK4/PDHK4, Data 1): 93.2%
- remaining activity at 10 µM (panel of 393 kinases [8]; read-out: % Enzyme Activity (relative to DMSO controls) CIMSS (10 μM) Data 2, kinase PDK4/PDHK4, Data 2): 93%
- remaining activity at 10 µM (panel of 393 kinases [9]; read-out: % Enzyme Activity (relative to DMSO controls) CIMSS (10 μM) Data 1, kinase EIF2AK1, Data 1): 82.5%
- remaining activity at 10 µM (panel of 393 kinases [9]; read-out: % Enzyme Activity (relative to DMSO controls) CIMSS (10 μM) Data 2, kinase EIF2AK1, Data 2): 81.2%
- remaining activity at 10 µM (panel of 393 kinases [10]; read-out: % Enzyme Activity (relative to DMSO controls) CIMSS (10 μM) Data 1, kinase EIF2AK3, Data 1): 61.6%
- remaining activity at 10 µM (panel of 393 kinases [10]; read-out: % Enzyme Activity (relative to DMSO controls) CIMSS (10 μM) Data 2, kinase EIF2AK3, Data 2): 60.2%
- concentration without inhibition of intracellular Akt phosphorylation in response to insulin, relative to the parental drug [11]: 100-1000 fold
- dose inhibiting intracellular Akt phosphorylation in response to insulin ([11]; HaCat, 10 μM insulin, permeabilized cells): > 100 µM
- extended Ca2+ release (first hour pi) (intracellular Ca2+): significant reduction
- initial Ca2+ transient (first three minutes following HSV exposure) (intracellular Ca2+): did not block
- fold less effective than staurosporine (IC50), PKA (PKA): ~46 fold
- IC50 (PKA; read-out: Compound IC50, PKA, in vitro kinase activity): 0.0423 µM
- IC50 (EGFR): 1.61 µM
